Data on 1 molecule can be found in publication PMC8881610 (Nature Communications, 2022).

Common to all, as to assay: cAMP accumulation assay (LANCE Ultra cAMP kit), GIPR WT, mutant or modified constructs
Common to all, as to assay type: cell-based
Holding throughout (set-up): acylated tirzepatide to the full-length or modified; Flag; expressed in transfected cells; host or cells: HEK293T
A general note: cAMP levels reflect the balance of adenylyl cyclase and phosphodiesterase activity.

Assay [1] has as its target T1, GIPR (Homo sapiens, UniProt P48546, E135A).
T1 sequence (P48546 22-466 E135A): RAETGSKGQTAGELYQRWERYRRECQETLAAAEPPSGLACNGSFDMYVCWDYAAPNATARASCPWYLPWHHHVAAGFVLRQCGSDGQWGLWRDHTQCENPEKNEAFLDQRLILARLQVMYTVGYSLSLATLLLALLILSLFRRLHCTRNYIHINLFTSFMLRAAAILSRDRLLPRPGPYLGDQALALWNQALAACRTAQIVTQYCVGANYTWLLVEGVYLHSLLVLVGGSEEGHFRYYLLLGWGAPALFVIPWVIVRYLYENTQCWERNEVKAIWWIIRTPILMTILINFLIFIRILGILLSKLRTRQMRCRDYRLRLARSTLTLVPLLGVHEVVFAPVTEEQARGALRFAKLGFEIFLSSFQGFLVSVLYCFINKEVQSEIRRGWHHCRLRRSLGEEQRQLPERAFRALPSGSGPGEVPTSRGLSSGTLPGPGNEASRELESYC
Particulars: GIPR E135A, HEK293T. In short, it runs like this:
(§1)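 HEK293T cells transiently transfected with human GIPR WT or mutant constructs (pcDNA3.1), used after 24 h. The cells were stimulated with peptide agonists for 40 min at RT in HBSS with 5 mM HEPES, 0.1% BSA or casein, and 0.5 mM IBMX. cAMP was read by LANCE Ultra TR-FRET (Eu-cAMP tracer/ULight anti-cAMP, 1 h RT, 620/650 nm).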

Assay [2] deals with T2, GIPR (Homo sapiens, UniProt P48546, D191A).
T2 sequence (P48546 22-466 D191A): T1 sequence (P48546 22-466 E135A) with A114E, D170A
The note with it: HEK-293T, GIPR D191A; HEK293T. Put shortly: as §1

Assay [3] deals with T3, GIPR (Homo sapiens, UniProt P48546, W209A).
T3 sequence (P48546 22-466 W209A): T1 sequence (P48546 22-466 E135A) with A114E, W188A
The note with it: GIPR W209A, HEK293T. In short, it runs like this: as §1

[4] abbreviates: read-out: cAMP pEC50 (converted).

Changes are numbered by the printed parent chain.

The Emax is the greatest response seen or fitted, relative to the assay's reference. With `CCCCCCCCCCCCCCCC(=O)N[C@@H](CCC(=O)NCCCC[C@H](NC(=O)[C@H](CC(=O)O)NC(=O)[C@H](CO)NC(=O)[C@@H](NC(=O)[C@H](Cc1ccccc1)NC(=O)[C@@H](NC(=O)CNC(=O)[C@H](CCC(N)=O)NC(=O)C(C)(C)NC(=O)[C@@H](N)Cc1c[nH]cn1)[C@@H](C)O)[C@@H](C)O)C(=O)N[C@@H](CO)C(=O)N[C@@H](CCCCN)C(=O)N[C@@H](Cc1ccc(O)cc1)C(=O)N[C@@H](CC(C)C)C(=O)N[C@@H](CC(=O)O)C(=O)N[C@@H](CCC(=O)O)C(=O)N[C@@H](CCCNC(=N)N)C(=O)N[C@@H](C)C(=O)N[C@@H](C)C(=O)N[C@@H](CCC(N)=O)C(=O)N[C@@H](CC(=O)O)C(=O)N[C@@H](Cc1ccccc1)C(=O)N[C@H](C(=O)N[C@@H](CCC(N)=O)C(=O)N[C@@H](Cc1c[nH]c2ccccc12)C(=O)N[C@@H](CC(C)C)C(=O)N[C@@H](CC(C)C)C(=O)N[C@@H](CC(=O)O)C(=O)NCC(=O)NCC(=O)N1CCC[C@H]1C(=O)N[C@@H](CO)C(=O)N[C@@H](CO)C(=O)NCC(=O)N[C@@H](C)C(=O)N1CCC[C@H]1C(=O)N1CCC[C@H]1C(=O)N1CCC[C@H]1C(=O)N[C@@H](CO)C(N)=O)C(C)C)C(=O)O` [Peptide 20], the EC50 was 42.7 pM in assay [1] (setting [4]) and 3.63 pM in assay [3] (setting [4]). Moreover, the results for the maximum response (Emax) in assay [1] (HEK-293T), in assay [2] and in assay [3] (HEK-293T) were 100 ± 1.44%, 51.7 ± 5.96% and 100 ± 1.45%, respectively.
